Assay results published in paper PMC10695616, “Rational design peptide inhibitors of Cyclophilin D as a potential treatment for acute pancreatitis” (Medicine, 2023).
pIC50: −log10 of the molar value. Ends that are not written are not given here.

Molecular target: T1, Human recombinant CypD (Homo sapiens, UniProt P30405)
T1 construct: purchased Beyotime (Shanghai, China)
Experiment: chymotrypsin coupled prolyl-isomerase inhibitory assay
Type: biochemical
Conditions: Suc-AAPF-AMC substrate, peptide 0.001 to 100 μM, 25 °C
Experimental: The method for measuring half-maximal inhibitory concentration (IC50) values of the peptides against CypD was described previously as chymotrypsin coupled prolyl-isomerase assay. Human recombinant CypD was purchased from Beyotime (Shanghai, China). The substrate solution for inhibitory assay was prepared as 100 μM Suc-AAPF-AMC (Chymotrypsin Substrate II, Sigma–Aldrich, Shanghai, China) with varied concentration of selected peptide (varied from 0.001 to 100 μM), 15 μg/mL CypD, and 0.5 M LiCl/2,2,2-trifluoroethanol. Alpha-chymotrypsin from bovine pancreas was purchased from Sigma (Shanghai, China) and dissolved in 0.001 M HCl, the concentration for chymotrypsin was prepared to 5 mg/mL. For inhibitory assay, the 96-well plate was filled with 150 μL of the substrate solution and incubated at 25 °C for 1 hour, followed by adding 40 μL of the chymotrypsin solution. The fluorescent changes under 380 nm was captured every 5 seconds for 300 seconds using Mltrospec 3100. The IC50 value was calculated which indicated the peptide concentration needed for obtaining 50% of […] inhibitory activity.
The binding affinity of selected peptides against CypD was tested using a modified inhibitory assay.[37] […] The selected 5 peptides were preincubated with CypD to validate their capability for blocking CypD activity. […] Compound C-9 was previously reported as a strong binder of CypD,[37] therefore, we adopted compound C-9 as a reference sample to evaluate the binding activity of the designed peptides.

T1 sequence (P30405 30-207): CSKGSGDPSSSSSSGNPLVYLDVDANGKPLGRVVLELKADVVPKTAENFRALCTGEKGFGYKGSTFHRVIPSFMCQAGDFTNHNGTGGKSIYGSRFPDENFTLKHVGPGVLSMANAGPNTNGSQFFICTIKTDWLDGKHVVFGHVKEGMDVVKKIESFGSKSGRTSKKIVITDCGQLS

WACKN [WACKN]
pIC50: 5.61

WACKQ [WACKQ]
pIC50: 4.98

WACLQ [WACLQ]
pIC50: 6.43

WACNQ [WACNQ]
pIC50: 5.58
